Assay results reported in patent US5646136A, “Methods of inhibiting angiogenesis and tumor growth, and treating ophthalmologic conditions with angiostatic and therapeutic steroids” (Duke University, priority 1994, dated 1997).
“Also recorded” adds a separate entry of the source.

Columns and labels:
[1] = test system: corneal neovascularization; test: Inhibition of corneal neovascularization in cauterized rat corneas, topical application four times per day for four days; format: in vivo; design: Neovascularization (total length of blood vessels in the cornea): unit not given here; conditions: for Inhibition of corneal vascularization (significance, in words): applied topically; for Corneal angiogenesis score / Neovascularization (total length of blood vessels in the cornea): mean ± S.D.; for Corneal angiogenesis score: subjective score 1+ to 4+; for Percent Inhibition of neovascularization (angiogenesis score) / Percent Inhibition (total vessel length): versus vehicle
Experimental: (§1) The ability of etianic acids to inhibit angiogenesis was evaluated in vivo in rats. Each animal had its corneas cauterized with silver nitrate/potassium nitrate. The cauterization causes the normally avascular cornea to undergo neovascularization (anglogenesis). This animal model, refined by Proia et al., Lab. Invest. 58: 473-479 (1988) and now a well-established assay, quantifies corneal neovascularization by computerized image analysis. […] Ophthalmol. Vis. Science 30: 1588-1593 (1989), and can provide a more definitive evaluation of angiostatic activity than models using the chorioallantoic membrane in the chick egg or the rabbit eye model. See Proia et al., Exp. Eye Res. (in press--to be published in Vol. 57 in 1993).
(§2) Female rats were obtained from Zivic-Miller Laboratories, Zelienople, Pa. There were 6-8 rats included in each treatment group. Neovascularization was induced by cauterizing both corneas of each anesthetized rat; this was performed by applying the tip of a silver nitrate/potassium nitrate to the cornea for 5-7.5 seconds.
The corneal tissues were treated with steroid formulations.
Steroids were formulated in vehicle containing 10 percent Tween 20 (polyoxyethylene sorbitan monolaurate) dissolved in 0.9 percent saline with percent (by volume) 0.2M tris (hydroxymethyl)aminomethane, pH 7.4. […] All steroids were tested at a concentration of 1 percent; additionally, some formulations were also tested at 0.01 percent, 0.1 percent, and 2.5 percent. Three 10 μl drops of each concentration of steroid were applied topically to each cauterized cornea four times per day (8:00 a.m., noon, 4:00 p.m., and 8:00 p.m.).
(§3) After four days of treatment, the animals were euthanized by rapid asphyxiation in a carbon dioxide chamber. The vasculature was perfused with a mixture of 10 percent india ink/11 percent gelatin/lactated Ringer's solution. Corneal tissue was dissected and prepared as flat mounts. During dissection, the corneas were examined with a dissecting microscope, and the degree of neovascularization was graded numerically from 1+ to 4+. After dehydration with alcohols, cleaning with xylene, mounting, and drying, the area of each cornea and the length of blood vessels were determined by computerized image analysis.
Statistical evaluation of inhibition of corneal neovascularization by each concentration of drug was evaluated using Mann Whitney U Tests (one-tailed; P<0.05=significant difference). […] In all cases, however, image analysis was used to quantitatively confirm visual observations.

[2] = test system: corneal neovascularization; test: Corneal angiogenesis inhibition, subcutaneous injection once/day; format: in vivo, rat
Experimental: as §1, §2, §3
The ability of compounds 2013, 518, and 513 to inhibit corneal angiogenesis when injected subcutaneously once/day to was assessed on rats prepared as described in Example 8. Dexamethasone was used as a positive control.

glucocorticoid activity = test: Glucocorticoid activity (general statements)
[3] = test system: human pancreatic HPAF cell line; test: Growth of human pancreatic HPAF tumor in nude mice; format: in vivo
Experimental: The HPAF tumor cell line is resistant to virtually all chemotherapeutic agents and grows rapidly in the nude mouse. Growth inhibition of this tumor for a period of time is thus indicative of significant anti-tumor activity.
Nude mice were implanted subcutaneously with 500,000 cells of the human pancreatic HPAF cell line. See Selvan et al., Drug Design and Discovery 9: […] (1992). Treatment with 9α-fluoro-11β-hydroxy-16β-methyl-1,4-androstadien-3-one 17β-carboxylic acid steroid (20 mg/kg subcutaneously in 90 percent propylene glycol-ethanol, injected twice daily 6 days per week) was commenced the following day and continued for one month. Growth of tumor was inhibited for about 3 weeks compared to controls. After this point, rapid growth ensued.

thymus = test: Thymus weight of rats treated topically in the corneal angiogenesis study; format: in vivo, rat
Experimental: as §1, §2
(§4) Steroids were formulated in vehicle containing 10 percent Tween 20 (polyoxyethylene sorbitan monolaurate) dissolved in 0.9 percent saline with percent (by volume) 0.2M tris (hydroxymethyl)aminomethane, pH 7.4. The steroids dissolved readily when the pH was adjusted to 7.0-8.0 with NaOH or KOH. All steroids were tested at a concentration of 1 percent; additionally, some formulations were also tested at 0.01 percent, 0.1 percent, and 2.5 percent. Three 10 μl drops of each concentration of steroid were applied topically to each cauterized cornea four times per day (8:00 a.m., noon, 4:00 p.m., and 8:00 p.m.).
as §3

[4] = Body weight of rats treated topically in the corneal angiogenesis study; format: in vivo, rat
Experimental: as §1, §2, §4
as §3, with “Corneal tissue was dissected and prepared as flat mounts. During dissection, the corneas were examined with a dissecting microscope, and the degree of neovascularization was graded numerically from 1+ to 4+.” left out

Compound: C[C@@H]1C[C@H]2[C@@H]3CCC4=CC(=O)C=C[C@]4(C)[C@@]3(F)[C@@H](O)C[C@]2(C)[C@@]1(O)C(=O)O [Compound 518, 17β-carboxyl-11β,17α-dihydroxy-9α-fluoro-16α-methyl-1,4-androstadien-3-one]
- Inhibition of corneal vascularization (significance, in words) [1]: did not significantly inhibit corneal vascularization
- Neovasc. ([2]; 10 mg/kg/day subcutaneous): 15.7 ± 5.8%

Compound: C=C1C[C@H]2[C@@H]3C=C(C)C4=CC(=O)C=C[C@]4(C)[C@H]3CC[C@]2(C)[C@@]1(OC(C)=O)C(C)=O [1-dehydro melegesterol acetate, 17α-acetoxy-6-methyl-16-methylene-1,4,6-pregnatriene-3,20-dione]
- Glucocorticoid activity (in words) (glucocorticoid activity): lacks glucocorticoid activity

Compound: C[C@]12CC[C@@H](O)CC1CC[C@@H]1[C@@H]2[C@@H](O)C[C@@]2(C)[C@H]1CC[C@]2(O)C(=O)O (stereo partly drawn) [Compound 526, 17β-carboxyl-3α,11β,17α-trihydroxy-androstane]
- Inhibition of corneal vascularization (significance, in words) [1]: did not significantly inhibit corneal vascularization

Compound: 9α-fluoro-11β-hydroxy-16β-methyl-1,4-androstadien-3-one 17β-carboxylic acid
- Period for which growth of tumor was inhibited compared to controls ([3]; 20 mg/kg subcutaneously twice daily 6 days per week, one month): about 3 weeks

Compound: C[C@]12CC[C@H]3[C@@H](CCC4=CC(=O)CC[C@@]43C)[C@@H]1CC[C@@H]2C(=O)O [Compound 1000, 4-androsten-3-one-17β-carboxylic acid]
- Inhibition of corneal vascularization (significance, in words) [1]: did not significantly inhibit corneal vascularization

Compound: C[C@]12CCC(=O)C=C1CC[C@@H]1[C@@H]2[C@@H](O)C[C@@]2(C)[C@H]1CC[C@]2(O)C(=O)O [Compound 323, 17β-carboxyl-11β,17α-dihydroxy-4-androsten-3-one]
- Inhibition of corneal vascularization (significance, in words) [1]: did cause significant inhibition of corneal vascularization; also recorded: significantly suppressed
- Corneal angiogenesis score ([1]; topical 0.01%): 1.7 ± 1.1
- Corneal angiogenesis score ([1]; topical 0.1%): 2.1 ± 0.5
- Corneal angiogenesis score ([1]; topical 1.0%): 1.3 ± 0.9
- Percent Inhibition of neovascularization (angiogenesis score) ([1]; topical 1.0%): 28%

Compound: C[C@H]1C[C@@H]2[C@H]([C@@H](O)C[C@@]3(C)[C@H]2CC[C@]3(O)C(=O)O)[C@@]2(C)C=CC(=O)C=C12 [Compound 517, 17β-carboxyl-11β,17α-dihydroxy-6α-methyl-1,4-androstadien-3-one]
- Inhibition of corneal vascularization (significance, in words) [1]: did not significantly inhibit corneal vascularization

Compound: C[C@]12CCC(=O)C=C1CC[C@@H]1[C@@H]2C(=O)C[C@@]2(C)[C@H]1CC[C@]2(O)C(=O)O [Compound 527, 17β-carboxyl-17α-hydroxy-4-androsten-3,11-dione]
- Inhibition of corneal vascularization (significance, in words) [1]: did not significantly inhibit corneal vascularization

Compound: C[C@@H]1C[C@H]2[C@@H]3C[C@H](F)C4=CC(=O)C=C[C@]4(C)[C@@]3(F)[C@@H](O)C[C@]2(C)[C@@]1(O)C(=O)O [Compound 532, 6,9-difluoro-11β,17-dihydroxy-16α-methylpregna-1,4-diene-3-one-17β-carboxylic acid]
- Thymus weight difference between vehicle- and drug-treated groups (in words) (thymus; rat, in vivo): no significant difference between vehicle- and drug-treated groups
- Inhibition of corneal vascularization (significance, in words) [1]: did cause significant inhibition of corneal vascularization; also recorded: ability of this compound to inhibit corneal neovascularization; also recorded: significant differences between vehicle and Compound 532 at all concentrations
- Neovascularization (total length of blood vessels in the cornea) ([1]; topical 0.01 percent): 355.4 ± 62.2
- Percent Inhibition (total vessel length) ([1]; topical 0.01 percent): 12.3%
- Neovascularization (total length of blood vessels in the cornea) ([1]; topical 0.1 percent): 322.0 ± 78.0
- Percent Inhibition (total vessel length) ([1]; topical 0.1 percent): 20.6%
- Neovascularization (total length of blood vessels in the cornea) ([1]; topical 1.0 percent): 202.2 ± 74.3
- Percent Inhibition (total vessel length) ([1]; topical 1.0 percent): 50.1%

Compound: C[C@]12C[C@H](O)[C@H]3[C@@H](CCC4=CC(=O)CC[C@@]43C)[C@@H]1CC[C@@H]2C(=O)O [Compound 525, 17β-carboxyl-11β-hydroxy-4-androsten-3one]
- Inhibition of corneal vascularization (significance, in words) [1]: did not significantly inhibit corneal vascularization

Compound: C[C@]12C[C@](C)(O)[C@H]3[C@@H](CCC4=CC(=O)C=C[C@@]43C)[C@@H]1CC[C@@H]2O [11β,17β-dihydroxy-11α-methyl-1,4-androstadien-3-one, reference compound]
- Glucocorticoid activity (in words) (glucocorticoid activity): anti-glucocorticoid

Compound: C[C@@H]1C[C@H]2[C@@H]3CCC4=CC(=O)C=C[C@]4(C)[C@@]3(F)[C@@H](O)C[C@]2(C)[C@@]1(O)C(=O)CO [dexamethasone, reference compound]
- Body weight less than control rats ([4]; topical 0.1 percent, end of four days of treatment): 17%
- Reduction of thymus weight (thymus; topical 0.1 percent, similar experiment): 75%
- Neovasc. ([2]; 1 mg/kg/day subcutaneous): 9.3 ± 2.2%
- Reduction of corneal neovascularization versus vehicle ([2]; 1 mg/kg/day subcutaneous): -39.6%

Compound: C[C@H]1C[C@H]2[C@@H]3CCC4=CC(=O)C=C[C@]4(C)[C@@]3(F)[C@@H](O)C[C@]2(C)[C@@]1(O)C(=O)O [Compound 513, 17β-carboxyl-11β,17α-dihydroxy-9α-fluoro-16β-methyl-1,4-androstadien-3-one]
- Loss of body weight (in words) ([4]; rat, in vivo): no significant loss of body weight
- Growth of HPAF tumor (in words) ([3]; nude mice): inhibits growth of the human HPAF pancreatic tumor in nude mice
- Change in thymus weight (in words) (thymus; rat, in vivo): did not cause any significant change in thymus weight
- Decrease of thymus weight from control (thymus; rat, in vivo): 45%
- Thymus weight (thymus; rat, in vivo): 0.187±0.042 gm
- Degree of inhibition of corneal angiogenesis compared with dexamethasone ([1]; 1 percent compound topical vs 0.1 percent dexamethasone sodium phosphate): appeared similar to that caused by topically applied 0.1 percent dexamethasone sodium phosphate
- Inhibition of corneal vascularization (significance, in words) [1]: did cause significant inhibition of corneal vascularization
- Corneal angiogenesis score ([1]; topical 0.01%): 1.8 ± 0.4
- Percent Inhibition of neovascularization (angiogenesis score) ([1]; topical 0.01%): 0%
- Corneal angiogenesis score ([1]; topical 0.1%): 1.1 ± 0.9
- Percent Inhibition of neovascularization (angiogenesis score) ([1]; topical 0.1%): 39%
- Corneal angiogenesis score ([1]; topical 1.0%): 0.4 ± 0.4
- Percent Inhibition of neovascularization (angiogenesis score) ([1]; topical 1.0%): 78%
- Neovasc. ([2]; 10 mg/kg/day subcutaneous): 8.2 ± 1.1%
- Reduction of corneal neovascularization versus vehicle ([2]; 10 mg/kg/day subcutaneous): -46.7%
